Test results reported in patent publication US20120202794A1 (priority 2011, published 2012).

Key:
[1] = Cell cytotoxicity assay (MTS), CC90 as reported in Table 1, cell line not stated; format: cell-based; conditions: human; MTS assay; 8 days incubation; cell line not given
Procedure, shortened: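 Compounds, serially diluted from 100 μM, were incubated 8 days at 37° C with Huh7, HepG2 or BxPC3 (2×10^3 cells/well) or CEM (5×10^3 cells/well). Viability was read by MTS, 2 h, absorbance 490 nm. CC90 (90% inhibition) was taken against untreated cells.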

[2] = system: HCV Replicon 1b; assay: HCV inhibition assay, HCV replicon 1b (Clone A or ET-lunet cells; RT-PCR or luciferase reporter); format: cell-based; conditions: Hepatitis C virus, 96 h, HCV replicon 1b; 4 days incubation; read-out: Replicon 1b potency EC90
Procedure, shortened: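 Clone A (1500/well) or ET-lunet (3000/well) replicon cells treated with serially diluted compounds (0.5% DMSO, no G418) for 4 days at 37 °C. HCV RNA measured by one-step RT-PCR normalized to rRNA (ΔΔCt) or by luciferase luminescence versus DMSO controls; EC50/EC90 by curve fitting.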

SMILES	CC90 at 8 days [1] [nM]	EC90 [2] [nM]
CC(C)C[C@H]1CN(C(=O)c2cc(-c3cc(F)cc(F)c3)on2)[C@@H](CC(C)C)C(=O)N1 [Compound 287, (3S,6S)-4-(5-(3,5-difluorophenyl)isoxazole-3-carbonyl)-3,6-diisobutylpiperazin-2-one]	> 10000	3570
CC(C)C[C@H]1C(=O)N[C@@H](CC2CC2)CN1C(=O)c1cc(-c2ccc(F)cc2F)on1 [Compound 288, (3S,6S)-6-(cyclopropylmethyl)-4-(5-(2,4-difluorophenyl)isoxazole-3-carbonyl)-3-isobutylpiperazin-2-one]	> 10000	1600
COc1ccc2c(c1)CCc1c(C(=O)N3C[C@H](CC(C)C)NC(=O)[C@@H]3CC(C)C)noc1-2 [Compound 289, (3S,6S)-3,6-diisobutyl-4-(7-methoxy-4,5-dihydronaphtho[2,1-d]isoxazole-3-carbonyl)piperazin-2-one]	> 10000	5010
CCC[C@H]1CN(C(=O)c2noc(-c3ccc(F)cc3)n2)[C@@H](CC(C)C)C(=O)N1 [Compound 290, (3S,6S)-4-(5-(4-fluorophenyl)-1,2,4-oxadiazole-3-carbonyl)-3-isobutyl-6-propylpiperazin-2-one]	> 10000	140
CC(C)C[C@H]1C(=O)N[C@@H](C2CCCCC2)CN1C(=O)c1noc(-c2ccc(F)cc2)n1 [Compound 291, (3S,6S)-6-cyclohexyl-4-(5-(4-fluorophenyl)-1,2,4-oxadiazole-3-carbonyl)-3-isobutylpiperazin-2-one]	> 10000	330
CC(C)C[C@H]1CN(C(=O)c2noc(-c3ccc(F)cc3)n2)[C@@H](CC(C)C)C(=O)N1 [Compound 293, (3S,6S)-4-(5-(4-Fluorophenyl)-1,2,4-oxadiazole-3-carbonyl)-3,6-diisobutylpiperazin-2-one]	> 10000	270
CC(C)C[C@H]1C(=O)N[C@@H](C2CCCC2)CN1C(=O)c1noc(-c2ccc(F)cc2)n1 [Compound 294, (3S,6S)-6-Cyclopentyl-4-(5-(4-fluorophenyl)-1,2,4-oxadiazole-3-carbonyl)-3-isobutylpiperazin-2-one]	> 10000	350
CC(C)C[C@H]1C(=O)N[C@@H](C(C)C)CN1C(=O)c1noc(-c2ccc(F)cc2)n1 [Compound 295, (3S,6S)-4-(5-(4-Fluorophenyl)-1,2,4-oxadiazole-3-carbonyl)-3-isobutyl-6-isopropylpiperazin-2-one]	> 10000	320
CSC[C@H]1CN(C(=O)c2noc(-c3ccc(F)cc3)n2)[C@@H](CC(C)C)C(=O)N1 [Compound 296, (3S,6R)-4-(5-(4-Fluorophenyl)-1,2,4-oxadiazole-3-carbonyl)-3-isobutyl-6-((methylthio)methyl)piperazin-2-one]	> 10000	1540
CC(C)C[C@H]1C(=O)N[C@@H](CC2CC2)CN1C(=O)[C@@H]1C[C@H]1c1ccc(F)cc1 [Compound 297, (3S,6S)-4-[(1R,2R)-2-(4-Fluoro-phenyl)-cyclopropanecarbonyl]-6-cyclopropyl-methyl-3-isobutyl-piperazin-2-one]	> 10000	410
CSC[C@H]1CN(C(=O)[C@@H]2C[C@H]2c2ccc(F)cc2)[C@@H](CC(C)C)C(=O)N1 [Compound 299, (3S,6R)-4-((1R,2R)-2-(4-fluorophenyl)cyclopropanecarbonyl)-3-isobutyl-6-((methylthio)methyl)piperazin-2-one]	> 10000	630
CSC[C@H]1CN(C(=O)[C@@H]2C[C@H]2c2ccc(Cl)cc2)[C@@H](CC(C)C)C(=O)N1 [Compound 300, (3S,6R)-4-((1R,2R)-2-(4-Chlorophenyl)cyclopropanecarbonyl)-3-isobutyl-6-((methylthio)methyl)piperazin-2-one]	> 10000	780
CC(C)C[C@H]1CN(C(=O)c2noc3c2CCc2cc(F)ccc2-3)[C@@H](CC(C)C)C(=O)N1 [Compound 302, (3S,6S)-3,6-Diisobutyl-4-(7-fluoro-4,5-dihydronaphtho[2,1-d]isoxazole-3-carbonyl)piperazin-2-one]	> 10000	1410
CCC[C@H]1CN(C(=O)c2noc3c2CCc2cc(F)ccc2-3)[C@@H](CC(C)C)C(=O)N1 [Compound 304, (3S,6S)-4-(7-fluoro-4,5-dihydronaphtho[2,1-d]isoxazole-3-carbonyl)-3-isobutyl-6-propylpiperazin-2-one]	> 10000	640
CC(C)C[C@H]1C(=O)N[C@@H](C2CCCC2)CN1C(=O)c1noc2c1CCc1cc(F)ccc1-2 [Compound 305, (3S,6S)-6-cyclopentyl-4-(7-fluoro-4,5-dihydronaphtho[2,1-d]isoxazole-3-carbonyl)-3-isobutylpiperazin-2-one]	> 10000	1610
CC(C)C[C@H]1C(=O)N[C@@H](c2ccccc2)CN1C(=O)c1noc2c1CCc1cc(F)ccc1-2 [Compound 306, (3S,6S)-4-(7-fluoro-4,5-dihydronaphtho[2,1-d]isoxazole-3-carbonyl)-3-isobutyl-6-phenylpiperazin-2-one]	> 10000	890
CC(C)C[C@H]1CN(C(=O)c2cc3c(s2)-c2ccccc2OC3)[C@@H](CC(C)C)C(=O)N1 [Compound 307, (3S,6S)-3,6-diisobutyl-4-(4H-thieno[3,2-c]chromene-2-carbonyl)piperazin-2-one]	> 10000	4710
CC(C)C[C@H]1CN(C(=O)c2cc3c(s2)-c2cc(F)ccc2OC3)[C@@H](CC(C)C)C(=O)N1 [Compound 308, (3S,6S)-4-(8-fluoro-4H-thieno[3,2-c]chromene-2-carbonyl)-3,6-diisobutylpiperazin-2-one]	> 10000	6480
CC(C)C[C@H]1C(=O)N[C@@H](C(C)C)CN1C(=O)[C@@H]1C[C@H]1c1ccc(F)c(F)c1 [Compound 309, (3S,6S)-4-[(1R,2R)-2-(3,4-Difluoro-phenyl)-cyclopropanecarbonyl]-3-isobutyl-6-isopropyl-piperazin-2-one]	> 10000	780
CC(C)C[C@H]1C(=O)N[C@@H](C2CCCC2)CN1C(=O)[C@@H]1C[C@H]1c1ccc(C(C)(C)C)cc1 [Compound 310, (3S,6S)-4-((1R,2R)-2-(4-(tert-butyl)phenyl)cyclopropanecarbonyl)-6-cyclopentyl-3-isobutylpiperazin-2-one]	> 10000	950
CC(C)C[C@H]1C(=O)N[C@@H](C(C)C)CN1C(=O)[C@@H]1C[C@H]1c1ccc(C(C)(C)C)cc1 [Compound 311, (3S,6S)-4-((1R,2R)-2-(4-(tert-butyl)phenyl)cyclopropanecarbonyl)-3-isobutyl-6-isopropylpiperazin-2-one]	> 10000	1860
CC(C)C[C@H]1C(=O)N[C@@H](c2ccccc2)CN1C(=O)[C@@H]1C[C@H]1c1ccc(C(C)(C)C)cc1 [Compound 312, (3S,6S)-4-((1R,2R)-2-(4-(tert-butyl)phenyl)cyclopropanecarbonyl)-3-isobutyl-6-phenylpiperazin-2-one]	> 10000	1130
CCC[C@H]1CN(C(=O)c2cc(-c3ccc(Cl)cc3)no2)[C@@H](CC(C)C)C(=O)N1 [Compound 313, (3S,6S)-4-(3-(4-chlorophenyl)isoxazole-5-carbonyl)-3-isobutyl-6-propylpiperazin-2-one]	> 10000	390
CC(C)C[C@H]1C(=O)N[C@@H](C2CCCC2)CN1C(=O)c1cc(-c2ccc(Cl)cc2)no1 [Compound 314, (3S,6S)-4-(3-(4-chlorophenyl)isoxazole-5-carbonyl)-6-cyclopentyl-3-isobutyl-piperazin-2-one]	> 10000	510
CC(C)C[C@H]1C(=O)N[C@@H](C2CCCCC2)CN1C(=O)c1cc(-c2ccc(Cl)cc2)no1 [Compound 315, (3S,6S)-4-(3-(4-chlorophenyl)isoxazole-5-carbonyl)-6-cyclohexyl-3-isobutylpiperazin-2-one]	> 10000	700
CC(C)C[C@H]1C(=O)N[C@@H](c2ccccc2)CN1C(=O)c1cc(-c2ccc(Cl)cc2)no1 [Compound 316, (3S,6S)-4-(3-(4-chlorophenyl)isoxazole-5-carbonyl)-3-isobutyl-6-phenylpiperazin-2-one]	> 10000	280
CC(C)CC1=CN(C(=O)c2cc(-c3ccc(F)cc3)on2)[C@@H](CC(C)C)C(=O)N1 [Compound 317, (S)-4-(5-(4-Fluorophenyl)isoxazole-3-carbonyl)-3,6-diisobutyl-3,4-dihydro-pyrazin-2(1H)-one]	> 10000	280
CC(C)C[C@H]1C(=O)N(C)[C@@H](c2ccccc2)CN1C(=O)c1cc(-c2ccc(F)cc2)on1 [Compound 321, (3S,6S)-4-(5-(4-fluorophenyl)isoxazole-3-carbonyl)-3-isobutyl-1-methyl-6-phenylpiperazin-2-one]	> 10000	6450
CCN1C(=O)[C@H](CC(C)C)N(C(=O)c2cc(-c3ccc(F)cc3)on2)C[C@@H]1c1ccccc1 [Compound 322, (3S,6S)-1-ethyl-4-(5-(4-fluorophenyl)isoxazole-3-carbonyl)-3-isobutyl-6-phenylpiperazin-2-one]	> 10000	> 10000
CCCN1C(=O)[C@H](CC(C)C)N(C(=O)c2cc(-c3ccc(F)cc3)on2)C[C@@H]1c1ccccc1 [Compound 323, (3S,6S)-4-(5-(4-fluorophenyl)isoxazole-3-carbonyl)-3-isobutyl-6-phenyl-1-propylpiperazin-2-one]	> 10000	> 10000
